Laboratory results: paper PMC8279013 (Toxicology letters, 2020)

Biological target: T1, pregnane X receptor (PXR) (Homo sapiens, UniProt O75469)
T1 sequence (O75469 1-434): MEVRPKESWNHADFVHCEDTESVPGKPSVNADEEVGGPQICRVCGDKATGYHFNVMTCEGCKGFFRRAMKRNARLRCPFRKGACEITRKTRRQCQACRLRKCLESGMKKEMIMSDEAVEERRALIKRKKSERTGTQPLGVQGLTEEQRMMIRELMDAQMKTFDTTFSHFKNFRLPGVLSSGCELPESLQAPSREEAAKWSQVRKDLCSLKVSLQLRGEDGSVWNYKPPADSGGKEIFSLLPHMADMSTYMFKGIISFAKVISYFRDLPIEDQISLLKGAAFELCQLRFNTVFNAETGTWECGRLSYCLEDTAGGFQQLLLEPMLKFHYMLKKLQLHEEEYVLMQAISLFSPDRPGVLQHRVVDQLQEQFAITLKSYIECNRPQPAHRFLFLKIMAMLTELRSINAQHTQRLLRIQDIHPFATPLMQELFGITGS
Experiment: PXR element luciferase reporter, RIF-stimulated, stable hPXR-HRE cells
Format: cell-based

Q: `CC(=O)N1CCN(c2ccc(OC[C@H]3CO[C@](Cn4ccnc4)(c4ccc(Cl)cc4Cl)O3)cc2)CC1` (racemic) [ketoconazole] was tested. Which IC50 did it give?
A: Its IC50 is 22.4 µM.
